Data taken from patent US20100297109A1, “METHODS FOR INHIBITING FASCIN” (Cornell University, priority 2007, published 2010).
Where two headings read alike, the source gives them in different places.

Assays:
[1] = tested on: mouse breast tumor 4T1 cells; assay: Wound-healing assay, serum-induced migration of 4T1 cells; type: cell-based; conditions: 2 μM
Procedure: (§1) Cells. Mouse 4T1 mammary tumor cells and human MDA-MB-231 breast tumor cells were obtained from ATCC and have been described previously (Shan et al. 2005, Yang et al. 2005). 4T1 cells were cultured in RPMI 1640 medium supplemented with 10% FBS. MDA-MB-231 cells were cultured in DMEM supplemented with 10% FBS. Wound-healing assay. The wound-healing assay involves observing whether confluent cells can migrate across a scrape or wound in the cell layer. Cell migration assays were performed as described previously (Yang et al. 2005, Shan et al 2006). Tumor cells were plated in a 24-well plate coated with gelatin in standard media. After the cells grew to confluence, wounds were made in the confluent layer of cell using a sterile instrument such as a sterile pipette tip. The cells were washed with Phosphate Buffered Saline (PBS) or other sterile solutions and then the migration was induced by adding medium supplemented with 10% FBS. When the wound for the positive control closed, cells were fixed with 3.7% formaldehyde and stained with crystal violet staining solution. […] Photographs several random regions of the filter facing the second chamber are taken and the number of cells counted to calculate the average number of cells that had transmigrated.

4T1 cells [2] = assay: Boyden chamber cell migration assay, serum-induced migration of 4T1 cells; type: cell-based, mouse; conditions: FIGS. 1C and 1D
Procedure: as §1, with “media.” for “media. After the cells grew to confluence, wounds were made in the confluent layer of cell using a sterile instrument such as a sterile pipette tip. The cells were washed with Phosphate Buffered Saline (PBS) or other sterile solutions and then the migration was induced by adding medium supplemented with 10% FBS. When the wound for the positive control closed, cells were fixed with 3.7% formaldehyde and stained with crystal violet staining solution.”
(§2) Boyden Chamber Cell Migration Assay. […] Three randomly selected fields (10× objectives) on the lower side of the insert were photographed, and the migrated cells were counted. The migration was expressed as either the average number of migrated cells in a field or as percentage of migrated cells in positive control. Percentage was calculated with the formula P=100×(M−Mnc)/Mpc, where P is the percentage of migrated cells, M is the number of migrated cells, Mnc is the number of migrated cells in negative controls, and Mpc is the number of migrated cells in positive controls.

[3] = tested on: human breast tumor MDA-MB-231 cells; assay: Wound-healing assay, serum-induced migration of MDA-MB-231 cells; type: cell-based; conditions: 20 μM
Procedure: as §1

[4] = tested on: mouse embryonic fibroblast (MEF) cells; assay: Wound-healing assay, serum-induced migration of MEF cells; type: cell-based; conditions: 200 μM
[5] = tested on: human breast tumor MDA-MB 231 cells; assay: Cell migration assay, MDA-MB-231 cells; type: cell-based
Procedure: as §1, with “media.” for “media. After the cells grew to confluence, wounds were made in the confluent layer of cell using a sterile instrument such as a sterile pipette tip. The cells were washed with Phosphate Buffered Saline (PBS) or other sterile solutions and then the migration was induced by adding medium supplemented with 10% FBS. When the wound for the positive control closed, cells were fixed with 3.7% formaldehyde and stained with crystal violet staining solution.”
as §2

[6] = tested on: human prostate tumor PC-3 cells; assay: Cell migration assay, PC-3 cells; type: cell-based
[7] = tested on: human colon tumor Lovo cells; assay: Cell migration assay, Lovo cells; type: cell-based
4T1 cells [8] = conditions: serum, Shan et al. 2005; cited from earlier work
fascin = fascin (Homo sapiens, UniProt Q16658); assay: GST-fascin and biotin-macroketone interaction; type: binding; parameters: made in house; host or cells: Escherichia coli BL21; conditions: excess unlabeled compound
Procedure: Whole cell lysates from 4T1 mouse breast tumor cells were made. After preclearing the cell lysate with immobilized neutravidin biotin binding protein (Pierce, IL, USA) to remove biotin and avidin-binding proteins, the cell lysates were loaded to a column packed with the biotin-labeled macroketone (conjugated to neutravidin beads). A control column packed with free biotin and neutravidin beads was run side-by-side. After washing the column with 10 bed volumes of lysis buffer with 300 mM NaCl, the bound proteins were eluted with 0.1 M Glycine-HCl at pH 2.8 according to the manufacturer's instruction. […] Protein Expression and Purification. Recombinant GST-fascin fusion protein was produced in BL21 Escherichia coli. A 1-liter culture was grown to an A600 reading of 1.0 and then induced by addition of 0.3 mM isopropyl 1-thio-D-galactopyranoside (IPTG) for 12 hours at 25° C. Cells were flash frozen and then lysed by sonication in Tris-buffered saline. The supernatant was then incubated with glutathione-Sepharose for 2 h at 4° C. After extensive washing, GST-fascin was eluted and concentrated with a Centricon Plus-20 (Millipore). To remove the GST tag from the fusion protein, beads were incubated with thrombin overnight at 4° C. The supernatant was collected and concentrated. GST-fascin and Biotin-macroketone Interaction. […] Proteins associated with biotin-macroketone were precipitated with Untralink-immobilized NeutrAvidin agarose (Pierce). After extensive washing, bound proteins were eluted with SDS sample buffer and resolved by 10% SDS-PAGE. F-Actin Bundling Assay. Actin bundling activity was measured by low speed centrifugation assay and fluorescence microscopy. In low-speed centrifugation assay, monomeric rabbit G-actin was induced to polymerize at room temperature in F-actin buffer (20 mM Tris-HCl at pH 8, 1 mM ATP, 1 mM DTT, 2 mM MgCl2 and 100 mM KCl). Recombinant fascin proteins or control buffer were subsequently incubated with F-actin for 60 min at room temperature and centrifuged for 30 min at 10,000 g in an Eppendorf 5415D table-top centrifuge.

4T1 tumor cells = assay: 4T1 mouse mammary tumor model, spontaneous lung metastasis; type: in vivo
4T1 cells [9] = conditions: read-out: IC50, 4T1 cell migration, cited from earlier work
[10] = Gaul et al. 2004; cited from earlier work
[11] = tested on: several types of tumor cells; conditions: Nakae et al. 2000, cited from earlier work
[12] = Njardarson et al. 2004, Gaul et al. 2004

SMILES: COC1C=CCCCCC(=O)NCC(C)=CC(C)C1O (centres unmarked) [macrolactam, Migrastatin lactam]
- inhibition of serum-induced migration (wound-healing) [1]: inhibited the migration
- IC50 (4T1 cells [2]): 0.255 µM
- inhibition of serum-induced migration (wound-healing) [3]: inhibited the migration
- effect on serum-induced migration (wound-healing) [4]: had no effect
- inhibition of migration [5]: inhibited the migration
- inhibition of migration [6]: inhibited the migration
- inhibition of migration [7]: inhibited the migration
- formation of lamellipodia at the leading edge (4T1 cells [8]): inhibited the formation of lamellipodia
- competition of binding of biotin-conjugated macroketone to fascin (fascin): competed the binding

SMILES: COC1C=CCCCCC(=O)OCC(C)=CC(C)C1O (centres unmarked) [macrolactone]
- effect on 4T1 tumor metastasis (4T1 tumor cells; 20 mg/kg): statistically significant, it was much less than those of macroketone and macrolactam
- IC50 (4T1 cells [9]; macrolactone, Gaul et al. 2004): 0.024 µM
- half-life in mouse plasma [10]: < 5 min

SMILES: C=CC(OC)C(O[Si](C)(C)C(C)(C)C)C(C)C=C(C)CO (centres unmarked) [migrastatin semi-core, reference compound]
- effect on 4T1 tumor metastasis (4T1 tumor cells; 10 and 20 mg/kg): did not significantly reduce
- IC50 (4T1 cells [9]; [12]): 40 µM

SMILES: CO[C@H]1/C=C/CC/C=C/C(=O)OC([C@H](C)C(=O)CCCC2CC(=O)NC(=O)C2)/C(C)=C\[C@@H](C)[C@@H]1O (some centres unmarked) [migrastatin, Migrastatin]
- IC50 (4T1 cells [9]; [12]): 29 µM
- biosyntheses of DNA, RNA, and protein [11]: has no effect
- migration of tumor cells in vitro ([11]; high micromolar concentrations): inhibits the migration
